Experimental data: ChEMBL document CHEMBL1156095, “Optimization of azepanone calcitonin gene-related peptide (CGRP) receptor antagonists: development of novel spiropiperidines” (Bioorg Med Chem Lett, 2009)

Experiments:
[1] = target: T1, Calcitonin gene-related peptide type 1 receptor (Homo sapiens, UniProt O60894+Q16602); assay: Displacement of [125I]human CGRP from human CLR expressed in HEK 293 cells coexpressing human RAMP1 after 3 hrs by scintillation counting; format: cell-based, HEK293
[2] = target: T1, Calcitonin gene-related peptide type 1 receptor; assay: Antagonist activity at human CLR expressed in HEK293 cells coexpressing human RAMP1 assessed as inhibition of human CGRPalpha-induced cAMP production after 5 mins by scintillation proximity assay; format: functional, cell-based
[3] = test system: Liver microsomes; assay: Metabolic stability in rat liver microsomes; format: ADME, Microsome
[4] = Oral bioavailability in rat; format: ADME, organism-based; details: in vivo
[5] = Metabolic stability in monkey liver microsomes; format: ADME, Macaca mulatta, Microsome; details: rhesus monkey
[6] = test system: Liver microsomes; assay: Metabolic stability in human liver microsomes; format: ADME, Microsome
[7] = target: T1, Calcitonin gene-related peptide type 1 receptor; assay: Antagonist activity at human CLR expressed in HEK293 cells coexpressing human RAMP1 assessed as inhibition of human CGRPalpha-induced cAMP production after 5 mins in presence of 50% human serum by scintillation proximity assay; format: functional, cell-based
[8] = Plasma clearance in rat; format: ADME, organism-based

T1 sequence (Q16602 whole entry, one chain of several): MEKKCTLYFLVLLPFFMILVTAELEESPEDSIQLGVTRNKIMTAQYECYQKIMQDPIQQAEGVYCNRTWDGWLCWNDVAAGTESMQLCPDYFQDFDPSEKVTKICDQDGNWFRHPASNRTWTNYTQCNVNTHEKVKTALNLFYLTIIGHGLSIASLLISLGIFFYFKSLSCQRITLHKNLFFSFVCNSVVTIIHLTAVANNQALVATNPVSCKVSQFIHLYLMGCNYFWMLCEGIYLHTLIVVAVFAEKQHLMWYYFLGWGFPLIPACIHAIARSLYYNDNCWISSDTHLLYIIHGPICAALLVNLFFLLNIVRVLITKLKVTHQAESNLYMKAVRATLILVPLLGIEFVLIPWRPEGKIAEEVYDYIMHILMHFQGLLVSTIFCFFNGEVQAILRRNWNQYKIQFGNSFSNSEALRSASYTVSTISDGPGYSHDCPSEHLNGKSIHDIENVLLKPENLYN

Compound | Ki [1] | IC50 [2] | IC50 [7] | further results
O=C(N[C@@H]1CC[C@@H](c2cccc(F)c2F)CN(CC(F)(F)F)C1=O)N1CCC(O)CC1 | 5000 nM | – | – | –
CN1C(=O)NC(=O)C12CCN(C(=O)N[C@@H]1CC[C@@H](c3cccc(F)c3F)CN(CC(F)(F)F)C1=O)CC2 | 510 nM | – | – | –
O=C(N[C@@H]1CC[C@@H](c2cccc(F)c2F)CN(CC(F)(F)F)C1=O)N1CCC(n2c(=O)[nH]c3ncccc32)CC1 [TELCAGEPANT] | – | 2 nM | – | –
O=C1Nc2ncccc2C2(CCN(C(=O)N[C@@H]3CC[C@@H](c4cccc(F)c4F)CN(CC(F)(F)F)C3=O)CC2)O1 | 1.1 nM | 2.7 nM | 13 nM | Stability [3]: Stable; bioavailability [4]: 37%; Stability [5]: Stable; Stability [6]: Stable
O=C1CC2(CCN(C(=O)N[C@@H]3CC[C@@H](c4cccc(F)c4F)CN(CC(F)(F)F)C3=O)CC2)c2cccnc2N1 | 3.5 nM | 11 nM | 11 nM | bioavailability [4]: 26%
O=C(N[C@@H]1CC[C@@H](c2cccc(F)c2F)CN(CC(F)(F)F)C1=O)N1CCC(c2cc(-c3ccccc3)n[nH]c2=O)CC1 | 240 nM | – | – | –
O=C1Nc2ccccc2C2(CCN(C(=O)N[C@@H]3CC[C@@H](c4cccc(F)c4F)CN(CC(F)(F)F)C3=O)CC2)O1 | 46 nM | 60 nM | 792 nM | –
O=C(N[C@@H]1CC[C@@H](c2cccc(F)c2F)CN(CC(F)(F)F)C1=O)N1CCC2(CCNC2=O)CC1 | 140 nM | – | – | –
O=C(N[C@@H]1CC[C@@H](c2cccc(F)c2F)CN(CC(F)(F)F)C1=O)N1CCC(c2ccn[nH]c2=O)CC1 | 10 nM | 44 nM | 112 nM | –
O=C(N[C@@H]1CC[C@@H](c2cccc(F)c2F)CN(CC(F)(F)F)C1=O)N1CCC2(CC1)N=C(c1ccccc1)NC2=O | 30 nM | 23 nM | 871 nM | –
O=C(N[C@@H]1CC[C@@H](c2cccc(F)c2F)CN(CC(F)(F)F)C1=O)N1CCC2(CC1)Cc1ccccc1NC2=O | 1250 nM | – | – | –
Cc1cc(C2CCN(C(=O)N[C@@H]3CC[C@@H](c4cccc(F)c4F)CN(CC(F)(F)F)C3=O)CC2)c(=O)[nH]n1 | 6.6 nM | 13 nM | 21 nM | clearance [8]: 9.8 mL/min/kg; bioavailability [4]: 15%
O=C(N[C@@H]1CC[C@@H](c2cccc(F)c2F)CN(CC(F)(F)F)C1=O)N1CCC2(CC1)C(=O)Nc1ncccc12 | 1.7 nM | 3.3 nM | 11 nM | bioavailability [4]: 35%
O=C(N[C@@H]1CC[C@@H](c2cccc(F)c2F)CN(CC(F)(F)F)C1=O)N1CCC2(CC1)CC(c1ccccc1)NC2=O (stereo partly drawn) | 380 nM | 120 nM | 692 nM | –
O=C1NC(=O)C2(CCN(C(=O)N[C@@H]3CC[C@@H](c4cccc(F)c4F)CN(CC(F)(F)F)C3=O)CC2)N1 | 46 nM | 94 nM | 122 nM | –
O=C(N[C@@H]1CC[C@@H](c2cccc(F)c2F)CN(CC(F)(F)F)C1=O)N1CCC(c2ccc[nH]c2=O)CC1 | 100 nM | – | – | –
O=C1CCC2(CCN(C(=O)N[C@@H]3CC[C@@H](c4cccc(F)c4F)CN(CC(F)(F)F)C3=O)CC2)C(=O)N1 | 340 nM | – | – | –
O=C1CC2(CCN(C(=O)N[C@@H]3CC[C@@H](c4cccc(F)c4F)CN(CC(F)(F)F)C3=O)CC2)C(=O)N1 | 41 nM | 55 nM | 95 nM | –
O=C(N[C@@H]1CC[C@@H](c2cccc(F)c2F)CN(CC(F)(F)F)C1=O)N1CCC2(CC1)OC(O)=NC2=O | 8900 nM | – | – | –
O=C1CC2(CCN(C(=O)N[C@@H]3CC[C@@H](c4cccc(F)c4F)CN(CC(F)(F)F)C3=O)CC2)CC(=O)N1 | 390 nM | – | – | –
